Measurements reported in EP2371816A1, “Aminocyclohexenone, their preparation and use as medicament against oxidative stress” (ABIOGEN PHARMA S.p.A., priority 2010, dated 2011).

Columns and labels:
[1] = test system: C6 cells (rat glioma); experiment: In vitro inhibition of CHP-induced oxidative stress (DCF fluorescence) in C6 cells; assay type: cell-based; conditions: 500 µM CHP, compound 4, 20, 100 and 500 µM, 30 minutes at 37 °C, range given for both cell lines together
Experimental: (§1) The method used was essentially the one reported by Rüweler M. et al. ("Inhibition of peroxide-induced radical generation by plant polyphenols in C6 astroglioma cells" (2008) Toxicol in vitro 22, 1377-81), with a few minor modifications.
(§2) The cells were seeded in phenol-red free DMEM (Sigma Aldrich) into 96-well plates with 5% FBS and 20 mM HEPES at a density of 40,000 cells/well. After 48 hours, the medium was substituted by HBSS (Hanks' Balanced Salt Solution, Sigma) containing 10 µM of dihydro-2',7'-dichlorofluorescein diacetate (H2DCF-DA, Sigma Aldrich) and incubated in darkness for 30 minutes at 37 °C, in order to load the cells with fluorescent dye. H2DCF-DA was hydrolyzed enzymatically by the intracellular esterases to form non-fluorescent H2DCF, which was then rapidly oxidized to form 2',7'-dichlorofluorescein (DCF) being highly fluorescent in the presence of reactive species (RS). The intensity of DCF fluorescence is directly proportional to the amount of RS formed.
(§3) After carrying out two washes, the cells were exposed to 500 µM of CHP and various concentrations (4, 20, 100 and 500 µM) of the compounds of the invention for 30 minutes at 37 °C. Fluorescence was then measured, after cell washing, by a microplate reader at an excitation wavelength of 485 nm and an emission wavelength of 535 nm.
(§4) Six wells per plate per concentration of test composition (compound + CHP) and per control (HBSS without CHP) were measured and 12 wells were used as reference for CHP-induced stress. In addition, each 96-well plate contained 6 wells that received the highest concentration of the tested compounds without CHP, to investigate whether the compounds of the invention alone were able to induce cellular radical formation.
(§5) When using this assay, it should be borne in mind that DCF fluorescence is a generalized indicator of oxidative stress rather than of any particular reactive species, i.e. it is not a direct assay for H2O2 or other reactive species (Halliwell B, Whiteman M. (2004) "Measuring reactive species and oxidative damage in vivo and in cell culture: how should you do it and what do the results mean?" Br. J. Pharmacol. 142 231-255). Therefore, when an increase in DCF fluorescence induced by exposure of cells to CHP was measured, as was undertaken in these assays, it was not possible to deduce which reactive species was responsible. Inhibition of CHP-induced fluorescence was evaluated by means of different concentrations of the compounds of the invention and comparative compounds such as Trolox and edaravone.

[2] = test system: BAEC cells (bovine aortic endothelial); experiment: In vitro inhibition of CHP-induced oxidative stress (DCF fluorescence) in BAEC cells; assay type: cell-based; conditions: 500 µM CHP, compound 4, 20, 100 and 500 µM, 30 minutes at 37 °C, range given for both cell lines together
Experimental: as §1, §2, §3, §4, §5

[3] = Acute toxicity study, intraperitoneal single dose (OECD guideline no. 420); assay type: in vivo; conditions: result in words, with reference to Example 13
Experimental: This study was carried out with the purpose of investigating the toxicity of a single dose of the listed compounds administered to ICR (CD-1) female mice. According to the current OECD guideline no.
The mice used were all female and were treated by intraperitoneal injection administration. The animals were observed individually and regularly for the first 4 hours and within 24 hours after administration, and then twice a day for the whole observation period. As soon as the animals were stabilized, observations at the weekend were undertaken once only during the day.
The evaluated parameters included the survival, body weight development, variations in skin and fur, changes in ocular, conjunctival and buccal mucous membranes, changes in activities of the respiratory, circulatory, autonomous and central nervous systems, changes in somatomotor activity and in behaviour.
Any appearance of tremors, convulsions, salivation, diarrhea, lethargy, drowsiness and coma were attentively and regularly monitored. At the end of the observation period, a post-mortem was carried out on all the animals.

[4] = TEAC method (Trolox Equivalent Antioxidant Capacity Assay); conditions: ratio of gradient to gradient of reference (trolox); 37 °C, 650 nm, pH 4.5
Description: This assay is used to measure the total antioxidant activity of pure substances, biological fluids and plant compounds and is based on the reaction of antioxidants with the cation radical ABTS^˙+ (2,2'-azinobis(3-ethylbenzothiazolin-6-sulphonate)). This cation radical is metastable and has to be generated just before the experiment by reacting ABTS with hydrogen peroxide in the presence of HRP.
This radical can be reduced, with consequent loss of absorbance, by an antioxidant whose scavenging capacity can be measured spectrophotometrically at 650 nm. The test is carried out at 37 °C and the results are obtained from a comparison with Trolox (a synthetic antioxidant and hydrophilic analogue of vitamin E).
The ABTS solution S1 was prepared as follows: • 20 mg of ABTS were added to 50 mM of citric acid buffer (40 ml) at pH=4.5 and to the resulting solution there was added an aqueous solution of HRP (4.4 mg, 400 µl) and an aqueous solution of H2O2 (10 µl of a 30% solution diluted with 16.3 ml of water).
For each of the compounds (2), (6) and (7), as synthesized above, there was prepared a 600 µM solution in water, methanol or DMSO according to its solubility, as well as a Trolox solution as reference.
Each solution was diluted to produce 6 solutions each at a concentration between 25 µM and 300 µM. From each of the diluted and divided solutions, there were withdrawn 20 µl to which 200 µl of solution S1 were then added.
The decrease in absorbance of each solution thus obtained was monitored at 650 nm until a stable value was reached (about 90 minutes).
For each set of 6 solutions and for the reference trolox solution, the absorption was given in graph form as a function of the amount of compound (nmol) in the solution. The gradient of the straight line obtained by linear interpolation was determined according to the least squares method. The TEAC value of each compound of the invention is given in the table below and is expressed as the ratio between the gradient of the resulting straight line and the gradient of the reference (trolox) straight line.

Structure (SMILES) | Inhibition of CHP-induced fluorescence [1] | Inhibition of CHP-induced fluorescence [2] | toxicity evaluation in vivo (tolerability) [3] | TEAC [4]
CC1(C)CC(=O)C=C(NCCN2CCCCC2)C1 [(1), 5,5-dimethyl-3-(2-(piperidin-1-yl)ethylamino)cyclohex-2-enone] | effective | effective | well tolerated | 
O=C1C=C(NCCN2CCCCC2)CC(c2ccccc2)C1 (stereo not shown) [(3), 5-phenyl-3-(2-(piperidin-1-yl)ethylamino)cyclohex-2-enone] | effective | effective |  | 
CC1(C)CC(=O)C=C(NN2CCCCC2)C1 [(6), 5,5-dimethyl-3-(piperidin-1-ylamino)cyclohex-2-enone] |  |  | well tolerated | 1.2
